Experimental data: PMC6585620 (Clinical Pharmacology and Therapeutics, 2018)
Read-outs that look alike come from different tables or passages of the source.

How the values were obtained:
[1] = tablet 300 mg bid, cited from earlier work
CYP3A4 [2] = target: T1, CYP3A4 (Homo sapiens, UniProt P08684); test: In vitro CYP3A4 reversible inhibition; format: in vitro ADME
[3] = Physicochemical properties; settings: PBPK input
UGT1A1 [4] = target: T2, UGT1A1 (Homo sapiens, UniProt P22309); settings: read-out: UGT1A1 inhibition IC50; in vitro; cited from earlier work
T2 sequence (P22309 26-533): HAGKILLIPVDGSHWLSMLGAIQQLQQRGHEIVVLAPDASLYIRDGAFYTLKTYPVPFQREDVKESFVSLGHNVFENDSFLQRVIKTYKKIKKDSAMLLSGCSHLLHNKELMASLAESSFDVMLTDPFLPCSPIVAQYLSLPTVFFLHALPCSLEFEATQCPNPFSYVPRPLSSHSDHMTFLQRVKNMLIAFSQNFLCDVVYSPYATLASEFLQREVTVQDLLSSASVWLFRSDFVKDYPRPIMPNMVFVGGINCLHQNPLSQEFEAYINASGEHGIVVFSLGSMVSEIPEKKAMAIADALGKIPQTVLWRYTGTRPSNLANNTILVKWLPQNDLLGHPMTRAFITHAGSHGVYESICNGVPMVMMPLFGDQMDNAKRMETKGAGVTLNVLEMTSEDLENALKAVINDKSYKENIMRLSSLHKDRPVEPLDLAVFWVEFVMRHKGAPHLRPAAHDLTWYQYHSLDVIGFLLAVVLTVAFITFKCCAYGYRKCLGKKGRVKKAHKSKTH

[5] = Blood-to-plasma ratio and plasma unbound fraction; format: in vitro ADME
CYP3A4 [6] = test: In vitro CYP3A4 induction; format: in vitro ADME, human
[7] = observed, cited from earlier work
CYP3A4 [8] = target: T1, CYP3A4; test: In vitro CYP3A4 time-dependent inhibition; format: in vitro ADME; settings: measured data
[9] = PBPK model parameters estimated or predicted in Simcyp; set-up: species or system human; settings: for CYP3A CLint: retrograde approach
P‐glycoprotein (P‐gp) [10] = target: T3, P‐glycoprotein (P‐gp) (Homo sapiens, UniProt P08183); test: In vitro P-gp inhibition; format: in vitro ADME
[11] = PKPD exposure-response analysis of SOLO2; format: in vivo, human; settings: for a 50% increase in exposure to olaparib
[12] = Mass balance ADME study with [14C]-olaparib; format: in vivo, human; settings: Figure S1
[13] = cited from earlier work; for Increase in AUC vs normal renal function / Increase in Cmax vs normal renal function: single oral 300 mg tablet
P‐glycoprotein (P‐gp) [14] = target: T3, P‐glycoprotein (P‐gp); settings: read-out: P‐gp inhibition IC50; in vitro; cited from earlier work
UGT1A1 [15] = target: T2, UGT1A1; test: In vitro UGT1A1 inhibition; format: in vitro ADME; settings: UGT1A1 (Ki=IC50/2), measured data
[16] = adults SOLO2 (observed), ref SOLO2 (NCT01874353)
[17] = capsule 400 mg single dose, arithmetic mean (min–max)
[18] = tablet 300 mg bid multiple dose
[19] = capsule model, estimated based on clinical data

T3 sequence (P08183 whole entry): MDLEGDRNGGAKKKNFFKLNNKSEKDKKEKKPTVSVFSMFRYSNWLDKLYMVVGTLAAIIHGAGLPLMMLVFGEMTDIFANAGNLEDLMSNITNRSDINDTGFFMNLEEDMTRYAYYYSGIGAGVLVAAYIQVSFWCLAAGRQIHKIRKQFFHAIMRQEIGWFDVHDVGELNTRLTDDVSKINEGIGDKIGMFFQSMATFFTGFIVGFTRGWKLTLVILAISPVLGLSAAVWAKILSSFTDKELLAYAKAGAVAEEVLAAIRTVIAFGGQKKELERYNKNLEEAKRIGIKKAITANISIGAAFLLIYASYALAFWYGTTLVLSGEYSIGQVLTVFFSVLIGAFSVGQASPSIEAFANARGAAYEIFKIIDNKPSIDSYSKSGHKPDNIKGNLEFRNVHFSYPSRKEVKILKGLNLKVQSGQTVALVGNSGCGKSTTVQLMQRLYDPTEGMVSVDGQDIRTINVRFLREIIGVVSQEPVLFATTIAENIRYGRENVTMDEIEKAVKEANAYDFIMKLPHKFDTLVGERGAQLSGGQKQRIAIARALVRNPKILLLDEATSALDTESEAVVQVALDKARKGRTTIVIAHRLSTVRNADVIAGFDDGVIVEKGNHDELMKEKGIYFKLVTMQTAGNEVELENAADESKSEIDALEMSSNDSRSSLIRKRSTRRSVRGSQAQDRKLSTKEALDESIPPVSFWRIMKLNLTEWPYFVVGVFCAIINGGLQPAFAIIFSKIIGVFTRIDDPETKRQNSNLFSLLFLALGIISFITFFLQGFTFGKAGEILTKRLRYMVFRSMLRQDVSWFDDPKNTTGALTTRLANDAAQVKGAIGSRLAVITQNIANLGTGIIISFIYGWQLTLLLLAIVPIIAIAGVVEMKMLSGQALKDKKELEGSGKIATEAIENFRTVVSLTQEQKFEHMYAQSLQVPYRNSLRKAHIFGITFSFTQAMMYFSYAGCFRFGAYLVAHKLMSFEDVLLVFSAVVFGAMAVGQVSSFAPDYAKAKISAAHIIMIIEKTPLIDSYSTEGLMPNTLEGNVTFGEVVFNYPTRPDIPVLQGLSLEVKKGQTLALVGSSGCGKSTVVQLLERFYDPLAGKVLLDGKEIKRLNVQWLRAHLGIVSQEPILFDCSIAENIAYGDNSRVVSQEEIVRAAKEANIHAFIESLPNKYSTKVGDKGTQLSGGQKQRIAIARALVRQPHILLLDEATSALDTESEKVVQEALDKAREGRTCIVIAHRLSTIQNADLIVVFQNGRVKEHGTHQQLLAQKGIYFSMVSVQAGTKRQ
T1 sequence (P08684 whole entry): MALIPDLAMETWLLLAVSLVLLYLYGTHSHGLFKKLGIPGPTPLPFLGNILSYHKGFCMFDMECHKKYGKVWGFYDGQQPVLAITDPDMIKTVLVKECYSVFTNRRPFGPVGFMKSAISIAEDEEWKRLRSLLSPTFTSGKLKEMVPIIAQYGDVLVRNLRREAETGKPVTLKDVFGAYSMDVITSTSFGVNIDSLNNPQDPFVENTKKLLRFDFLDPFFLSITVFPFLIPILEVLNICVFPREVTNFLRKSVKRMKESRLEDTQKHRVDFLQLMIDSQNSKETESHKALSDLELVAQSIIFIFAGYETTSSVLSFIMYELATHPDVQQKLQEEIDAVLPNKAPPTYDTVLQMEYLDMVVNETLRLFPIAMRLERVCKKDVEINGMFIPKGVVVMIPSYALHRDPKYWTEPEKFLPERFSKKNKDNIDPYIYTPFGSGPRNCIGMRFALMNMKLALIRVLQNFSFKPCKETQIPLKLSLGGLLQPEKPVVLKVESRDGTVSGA

Structure (SMILES): O=C(c1cc(Cc2n[nH]c(=O)c3ccccc23)ccc1F)N1CCN(C(=O)C2CC2)CC1 [Olaparib]
- Geometric mean AUC (95% CI) ([1]; adults OlympiAD (observed), ref OlympiAD (NCT02000622)): 41.2 (36.1‐47.0) h·µg/mL
- Geometric mean AUC (95% CI) [1, 16]: 40.7 (37.7–44.0) h·µg/mL
- Geometric mean Cmax (95% CI) [1, 16]: 7.12 (6.75–7.51) μg/mL
- Ki (CYP3A4 [2]): 59.5 µM
- pKa [3]: Neutral
- Log P ([3]; measured data): 1.55 (measured data)
- IC50 (UGT1A1 [4]): 96.7 µM
- fu,plasma ([5]; fraction unbound in plasma, measured data): 0.181 (measured data)
- fraction unbound ([5]; human, plasma): 0.181
- EC50 (CYP3A4 [6]; human): 17.7 µM
- CYP3A4 induction Emax (CYP3A4 [6]; measured data): 48.1 (measured data) fold
- AUCt (range) [7, 17]: 56.2 (21.9–299) h·µg/mL
- Cmax (range) [7, 17]: 4.44 (3–15) µg/mL
- AUCss (range) [7, 18]: 63.8 (25.5–189) h·µg/mL
- Cmax (range) [7, 18]: 9.71 (4.8–24.9) µg/mL
- Cmax (range) ([7]; tablet 300 mg single dose, arithmetic mean (min–max)): 7.41 (2.6–19.1) µg/mL
- CYP3A4 TDI KI (CYP3A4 [8]): 72.2 (measured data) μM
- CLpo [9, 19]: 6.07 (estimated based on clinical data) L/h
- Peff,man [9, 19]: 6440 nm/s (estimated based on clinical data)
- CYP3A CLint ([9]; capsule model): 0.0412 (retrograde approach) µL/min/pmol of isoform
- CLpo ([9]; tablet model, estimated based on clinical data): 7.6 (estimated based on clinical data) L/h
- CYP3A CLint ([9]; tablet model): 0.057 (retrograde approach) µL/min/pmol of isoform
- Ki (P‐glycoprotein (P‐gp) [10]): 73.9 µM
- Predicted drop in hemoglobin level [11]: ~17.5%
- Share of total clearance by oxidation via CYP3A4/5 [12]: 84%
- Share of total clearance by renal elimination [12]: 16%
- Renal clearance ([13]; based on clinical data, ref NCT01894256): 1.48 (based on clinical data: NCT01894256) L/h
- Change in AUC and Cmax vs normal hepatic function ([13]; mild and moderate hepatic impairment): < 15%
- Increase in AUC vs normal renal function ([13]; mild renal impairment): 24%
- Increase in Cmax vs normal renal function ([13]; mild renal impairment): 15%
- Increase in AUC vs normal renal function ([13]; moderate renal impairment): 44%
- Increase in Cmax vs normal renal function ([13]; moderate renal impairment): 26%
- IC50 (P‐glycoprotein (P‐gp) [14]): 76 µM
- Ki (UGT1A1 [15]): 48.4 µM
